A value given as a limit tells only on which side of the number the result lay.

The term melting point denotes the temperature, or range, at which the solid turns liquid. The molecule `Cc1c(-c2ccc(O)cc2)n(Cc2ccc(OCCN3CCCCCCC3)cc2)c2ccc(O)cc12` came in with a melting point of 98 to 102 °C.

`CC1CN(C(=O)CCl)c2ccccc21` (stereo not given): the melting point was in the range of 78 to 79 °C.

Take `CC(C)(C)c1nn(-c2ccc([N+](=O)[O-])cc2Cl)c(=O)o1`: the melting point was 98 °C. As for `Oc1cccc2ccc(N3CCN(c4nc5ccc(C(F)(F)F)cc5[nH]4)CC3)nc12`, the melting point is 191 to 193 °C. As to `O=c1c(-c2ccccc2O)coc2cc(O)c(Cl)cc12`, the melting point is more than 250 °C.

The molecule `CCOC(=O)c1c(-c2ccccc2)cn2ccccc12` registered a melting point of 101 to 103 °C. Molecule `CC(=O)NCc1ccc(C(C)N2CCN(c3ccc(F)cc3)CC2)cc1` (stereo not given) showed a melting point of 128 to 130 °C.

In turn, `CCOC(=O)c1nc2c(=O)[nH]c3cc(C(F)(F)F)ccc3n2c1Cn1cnc(Cl)c1Cl` returned a melting point of 240 °C. The same measure for `COc1ccc(OC2COc3ccc(O)cc3C2O)cc1` (stereo not given): 187 to 189 °C.

Consider `CC(C)(C)OC(=O)N1CCCC(c2ncc(-c3cnc(-c4ccccc4)nc3)[nH]2)C1` (stereo not given), for which the melting point was found to be 130 °C. Molecule `CON1C(=O)CC2(CCN(C(=O)C3=CN(Cc4ccccc4)C=CC3)CC2)C1=O` showed a melting point of 57 to 73 °C. Molecule `O=CCC(F)(F)CN1C(=O)c2ccccc2C1=O` gave a melting point of 76 to 78 °C. Regarding `CC(=O)N[C@H]1CC[C@H](CCC(=O)O)CC1`, the melting point lay within 193 to 196 °C. Turning to `CCOC1CN(Cc2cccc(OC)c2)Cc2cc(OC)c(O)cc21` (stereo not given), the melting point lay in the range of 134 to 135 °C.

`CSc1nc2c(c(=O)[nH]1)CC2`: the melting point amounted to 215 °C. The molecule `COc1ccc(C2=NN(CCCCCCBr)C(=O)[C@H]3CC=CC[C@@H]23)cc1OC` (relative stereo) showed a melting point of 55 to 56 °C. Take `Nc1cc2c(cc1[N+](=O)[O-])[nH]c(=O)c(=O)n2C1CCCCC1`: the melting point was more than 260 °C. For `COC(=O)Cc1ccc(OCCNC(=O)C2Cc3ccccc3N2S(=O)(=O)c2ccc(-c3cc(C(F)(F)F)ccc3OC)cc2)cc1` (stereo not given), the melting point fell in the range of 61 to 64 °C.

On to `CCOc1nn(Cc2ccc(OCc3cccnc3)cc2)cc1CCC(=O)O`, for which the melting point fell in the range of 120 to 121 °C. The same measure for `CC(=O)Nc1cnc2c(NC(=O)c3c(Cl)cccc3Cl)cccc2c1`: 244 to 245 °C; for `O=C(CCCOc1ccc2nc3[nH]c(=O)[nH]c3cc2c1)N1CCCCC1`: 284 to 286 °C.

On to `CC(=O)SCC(C(=O)Nc1oc(CCC(=O)O)c2ccccc12)C(F)(F)F` (stereo not given), for which the melting point was 139 to 140 °C. To `O=C(O)c1ccccc1-n1nc(-c2ccccc2O)nc1-c1ccccc1O` belongs 132 to 138 °C. The molecule `CCN(CC)c1ccc(C(=O)NCCNC(=O)c2ccc(N(CC)CC)cc2)cc1` had a melting point of 166 to 167 °C. As to `O=C(NN1CCCCC1)NS(=O)(=O)C=Cc1ccccc1`, the melting point lay within 175 to 177 °C.

Consider `CCSc1nc2c(C)ccnc2n1Cc1ccc(-n2cc(Cl)cc2-c2nnn[nH]2)cc1`, for which the melting point is 88 to 90 °C. The molecule `Cn1c(Oc2ccc(Cl)c(F)c2)nc2c(-c3cccc(C(=O)O)c3)cccc21` showed a melting point of 283 to 284 °C. As for `Nc1c(F)c(N2C[C@@H](N)[C@@H](n3ccnn3)C2)c(F)c2c1c(=O)c(C(=O)O)cn2-c1ccc(F)cc1F` (relative stereo), the melting point was 279 to 281 °C. `Cc1nc(NC(=O)c2cnn3c(C4CC4)cc(-c4ccc(Cl)cc4)nc23)sc1S(=O)(=O)NC(C)(C)CO` yielded a melting point of 293 to 294 °C.

For the molecule `O=C(c1cccnc1)C(O)c1ccccc1Br` (stereo not given), the melting point was 105 to 108 °C. Molecule `Clc1cccc(-n2c(/C=C/c3ccccc3)nc3ccccc32)n1` returned a melting point of 122 to 123 °C. The same measure for `Cc1cc(C(F)(F)F)nc(OCC2CO2)c1C(=O)C1=C(O)C2CCC(C2)C1=O` (stereo not given): 54 to 56 °C; for `Nc1ccc(Sc2c(NCC3CC3)cc(C(=O)O)cc2S(N)(=O)=O)cc1`: 221 to 223 °C; for `COc1cc(C2(C=O)C=CC=CC2)ccc1OCCCN1CCC(c2noc3cc(F)ccc23)CC1` (stereo not given): 128 to 130 °C. The same measure for `S=C(NCc1cccnc1)c1[nH]c2ccc(Cl)cc2c1-c1ccccc1`: 240 to 241 °C. To `CC(=O)NCC1CC(c2ccc(N3CCS(=O)CC3)c(F)c2)=NO1` (stereo not given) belongs 204 to 205 °C; to `CON=C(C(=O)OC)c1cc(Cl)nc(NC=O)n1`, 165 to 172 °C; to `CC(=O)OC1=CC(C)C2(C)C(=C1)CCC1C3CCC(=O)C3(C)CCC12` (stereo not given), 104 to 107 °C. `COc1cc2c(c(OC)c1OC)-c1ccc(O)cc1[C@@H](NC(C)=O)CC2` came in with a melting point of 157 °C.

On to `CON=C(CCC(=O)O)c1ccc(-c2ccc(Cl)cc2)cc1`, for which the melting point lay within 183 to 186 °C. As for `COC(=O)c1cc(OC)c2c(c1)OCO2`, the melting point amounted to 91 °C. `CCOC(=O)c1cc(-c2cccc(C(F)(F)F)c2)c(OCCO)c(-c2cccc(C(F)(F)F)c2)c1` had a melting point of 154 to 158 °C. The same measure for `O=C1N=NC(=O)c2ccccc21`: 257 to 259 °C.

As for `CN1CC=C(c2c[nH]c3ccc(N)cc23)C(F)C1` (stereo not given), the melting point was in the range of 176 to 178 °C. To `O=Cc1cc(O)ccc1-c1cccnc1` belongs 182 to 184 °C; to `CC1=NC(NC(=O)Nc2cc(C)ccn2)C(=O)N(CC(=O)N2CC3CCC(CC3)C2)c2c(C)cccc21` (stereo not given), 152 to 154 °C; to `CCCC(=O)c1c[nH]c2c(C(=O)OC)cccc2c1=O`, 151 to 153 °C.

Molecule `CCOC(=O)C(=O)CC(=O)c1cn(Cc2cccc(F)c2)c2ccccc2c1=O` yielded a melting point of 174 to 175 °C. To `CCC(C)OC(=O)C(C(=O)O)=C1SCS1` (stereo not given) belongs 80 to 82 °C; to `COc1ccc(O[C@@H]2CCNC[C@H]2O)cc1` (relative stereo), 171 to 173 °C; to `Cc1ccc2[nH]c(S(=O)(=O)CC(F)(F)F)nc2c1`, 160 to 161 °C. The same measure for `COc1cc(OC)c2c(C)c(CCN3CCN(c4ccccc4F)CC3)c(=O)oc2c1`: 152 to 153 °C. `COC(=O)CCCC(C)(C)c1ccc(O)c(C(C)=O)c1O` gave a melting point of 94 to 97 °C. Molecule `Nc1nnc(SCc2ccc(Cl)cc2)s1` had a melting point of 162 to 164 °C.

The molecule `CCCCNc1nc(-c2ccc(F)cc2)c(-c2ccc(S(C)(=O)=O)cc2)s1` came in with a melting point of 134 to 135 °C.

As to `COc1cc(CN2CCN(c3cccc(C)c3Cl)CC2)cc(OC)c1OC`, the melting point fell in the range of 112 to 113 °C.

For the molecule `O=c1[nH]c(=O)n(C2CC(Cl)C(CBr)O2)cc1C=CBr` (stereo not given), the melting point was found to be 149 °C. `COc1ccc(C=C(NC(C)=O)C(=O)O)cc1OC` yielded a melting point of 212 to 214 °C.

In turn, `COC(=O)c1cccc(S(=O)(=O)Cl)c1C` gave a melting point of 46.5 to 50 °C. The molecule `CCOC(=O)c1ccc(-n2ccnc2)cc1` came in with a melting point of 100 °C. To `CCCCc1nc(Cl)c(C(=O)O)n1Cc1ccc2oc(-c3ccccc3C(=O)OCC)c(Br)c2c1` belongs 148 to 150 °C. The same measure for `COc1ccc(C#N)c2c1OC1(CCCC1)C2`: 74 to 76 °C; for `O=[N+]([O-])c1cccc(C=[N+]([O-])c2cccc(CO)c2)c1`: 177 to 179 °C; for `CCCN(CCC)Cc1nc(-c2ncn3c2[C@@H]2CCN2C(=O)c2c(Cl)cccc2-3)no1`: 147 to 153 °C. For `O=c1c2ccc(F)cc2nc(C(S)c2ncnc3[nH]cnc23)n1-c1ccccc1Cl` (stereo not given), the melting point was 151 to 154 °C. The molecule `CCCCNc1c(C(=O)OCC)c(C)nc2c1nnn2CC` registered a melting point of 42 to 43 °C. The same measure for `COC(=O)NS(=O)(=O)c1ccc(NC(=O)COc2ccc(Cl)cc2C)cc1`: 184 to 185 °C; for `N#Cc1ccc(NC(=O)CBr)cc1`: 166 to 168 °C. To `COC(=O)C1=C(C(=O)OC)c2c(c3ccccc3n2C)CC1` belongs 113 °C; to `c1ccc(C2CC(n3cncn3)c3ccccc3N2)cc1` (stereo not given), 162 to 164 °C. The same measure for `CN(C)CCC1(c2ccccc2)Cc2ccccc2C(=O)O1` (stereo not given): 95 to 95.5 °C; for `CC(=O)NNc1ccc(NC(=S)Nc2ccc(NNC(C)=O)cc2)cc1`: 234 to 236 °C; for `CCOC(=O)C(=O)NNc1ccc(N)cc1`: 97 to 99 °C. With `Cc1nc(Nc2cccc(C(F)(F)F)c2)c2ccccc2c1Cc1ccc(Cl)nc1`, the melting point came to 137 °C.

Molecule `CCc1noc(C2=C(C)NC(C)=C(C(=O)OCCOC)C2c2cc(Cl)cc(Cl)c2)n1` (stereo not given) displayed a melting point of 201 to 202 °C. Turning to `CCc1ccc2oc(=O)[nH]c2c1`, the melting point lay within 146 to 147 °C. To `Oc1cccc2cc3ccccc3nc12` belongs 115 °C; to `CC(=O)Nc1ccn(C2OC(COC(C)=O)C(OC(C)=O)C2O[N+](=O)[O-])c(=O)n1` (stereo not given), 160 to 161 °C; to `CC(C)Cc1cc(OCC(=O)N(C)C)c2[nH]nc(Nc3nccs3)c2c1`, 96 to 98 °C. The molecule `COc1ccc(-c2cc(=O)n(Cc3ccc(F)c(F)c3)nc2-c2ccc(OC)cc2)cc1` yielded a melting point of 155 to 156 °C. With `COc1ccc2cc(-c3cc(=O)oc4cc(O)ccc34)ccc2c1`, the melting point lay in the range of 223 to 225 °C. `Cc1nnc(-c2ccc3occ(-c4ccc(O)cc4)c3c2)o1`: the melting point was 226 to 227 °C.

The molecule `CC[Si](C#Cc1ccc2nc(-n3ccnc3)nc(NCCOC)c2c1)(CC)CC` registered a melting point of 158 to 160 °C.

The molecule `O=C(NC(NC(=S)Nc1ccccc1F)C(F)(F)F)c1ccc(Cl)cc1` (stereo not given) registered a melting point of 197 to 200 °C. On to `Cc1noc(C)c1COCCn1cnc2c(N)nc3ccccc3c21`, for which the melting point was in the range of 213 to 215 °C.

In turn, `Cc1ccc(-c2ccc3c(c2)C=C(C(=O)Nc2ccc(CN4CCC(O)CC4)cc2)CC3)cc1` had a melting point of 223 to 224 °C. `Cc1ccc(-c2nc(Cc3cc4cc(C=O)ccc4o3)c(C)o2)cc1` returned a melting point of 126 to 130 °C. `O=C(Cc1cccc2ccccc12)NCc1cccc2c1C(=O)N(C1CCC(=O)NC1=O)C2=O` (stereo not given): the melting point lay in the range of 187 to 189 °C.

Regarding `CCCC#Cc1ccnc2[nH]cc(-c3ccnc(N)n3)c12`, the melting point was more than 210 °C. As for `CCOC(=O)C(=O)Nc1cccc(NC(=O)C(=O)OCC)n1`, the melting point was in the range of 179 to 180 °C.

The values are drawn from a melting point compilation (Tetko et al.; mined from patent text by program, amines drawn as free bases though some values may be those of a salt).
